Molecules are shown by their SMILES. Where “and” joins values, the source holds several entries; their conditions need not be identical. Identical values can stand only once. Entries after “also recorded” stand apart in the source; their conditions may differ. Where only a bound is given, the exact number is not on record here.

For data set [1], the target named is FLT3 (Homo sapiens, UniProt P36888). Put plainly: HotSpot kinase assay. The settings on record: read-out: % Enzyme Activity.
Data set [2] is described as follows: 14-day repeated dose toxicity study. As to conditions: ICR mice.
For the next data set, the target named is KIT (Homo sapiens, UniProt P10721). The experiment in a line: HotSpot kinase assay. The settings on record: read-out: % Enzyme Activity.
The target in another data set is IRR (Homo sapiens, UniProt P14616). The experiment in a line: HotSpot kinase assay. The settings on record: read-out: % Enzyme Activity.
Sequence of IRR (P14616 27-1297): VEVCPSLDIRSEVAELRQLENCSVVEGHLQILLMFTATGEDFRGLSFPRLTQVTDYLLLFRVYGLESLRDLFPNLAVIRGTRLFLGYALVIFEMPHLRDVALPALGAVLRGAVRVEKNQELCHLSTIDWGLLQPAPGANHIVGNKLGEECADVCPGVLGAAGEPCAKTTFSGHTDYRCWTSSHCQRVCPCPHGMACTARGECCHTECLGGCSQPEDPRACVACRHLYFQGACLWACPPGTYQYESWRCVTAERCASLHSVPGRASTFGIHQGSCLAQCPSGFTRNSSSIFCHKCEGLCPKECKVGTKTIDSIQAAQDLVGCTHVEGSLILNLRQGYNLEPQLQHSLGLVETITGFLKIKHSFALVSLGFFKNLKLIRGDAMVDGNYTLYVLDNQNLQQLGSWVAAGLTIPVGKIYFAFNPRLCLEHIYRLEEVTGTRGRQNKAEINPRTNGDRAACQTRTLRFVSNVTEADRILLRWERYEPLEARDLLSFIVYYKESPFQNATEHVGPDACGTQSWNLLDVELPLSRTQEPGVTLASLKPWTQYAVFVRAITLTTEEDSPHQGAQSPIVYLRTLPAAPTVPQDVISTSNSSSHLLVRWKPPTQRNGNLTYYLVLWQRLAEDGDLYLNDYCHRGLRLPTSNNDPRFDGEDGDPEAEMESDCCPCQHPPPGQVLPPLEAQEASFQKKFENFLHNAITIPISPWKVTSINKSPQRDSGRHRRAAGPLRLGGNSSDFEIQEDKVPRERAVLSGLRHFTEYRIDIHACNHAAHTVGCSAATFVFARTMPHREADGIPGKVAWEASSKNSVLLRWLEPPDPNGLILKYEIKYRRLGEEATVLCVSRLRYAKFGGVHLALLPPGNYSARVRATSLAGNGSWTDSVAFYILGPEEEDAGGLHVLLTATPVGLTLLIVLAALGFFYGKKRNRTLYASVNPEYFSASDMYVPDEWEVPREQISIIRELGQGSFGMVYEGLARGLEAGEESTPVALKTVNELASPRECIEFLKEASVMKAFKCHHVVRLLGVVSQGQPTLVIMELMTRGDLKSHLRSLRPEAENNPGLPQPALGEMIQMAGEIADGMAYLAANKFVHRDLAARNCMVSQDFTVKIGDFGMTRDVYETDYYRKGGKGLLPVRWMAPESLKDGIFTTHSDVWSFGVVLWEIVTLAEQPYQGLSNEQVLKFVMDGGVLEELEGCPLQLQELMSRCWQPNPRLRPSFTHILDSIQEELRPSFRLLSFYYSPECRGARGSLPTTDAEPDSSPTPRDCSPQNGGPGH
In the next data set the target is TRKC (Homo sapiens, UniProt Q16288). The experiment in a line: HotSpot kinase assay. The settings on record: read-out: % Enzyme Activity.
A further data set deals with TRKB (Homo sapiens, UniProt Q16620). Put plainly: HotSpot kinase assay. The settings on record: read-out: % Enzyme Activity.
Sequence of TRKB (Q16620 32-822): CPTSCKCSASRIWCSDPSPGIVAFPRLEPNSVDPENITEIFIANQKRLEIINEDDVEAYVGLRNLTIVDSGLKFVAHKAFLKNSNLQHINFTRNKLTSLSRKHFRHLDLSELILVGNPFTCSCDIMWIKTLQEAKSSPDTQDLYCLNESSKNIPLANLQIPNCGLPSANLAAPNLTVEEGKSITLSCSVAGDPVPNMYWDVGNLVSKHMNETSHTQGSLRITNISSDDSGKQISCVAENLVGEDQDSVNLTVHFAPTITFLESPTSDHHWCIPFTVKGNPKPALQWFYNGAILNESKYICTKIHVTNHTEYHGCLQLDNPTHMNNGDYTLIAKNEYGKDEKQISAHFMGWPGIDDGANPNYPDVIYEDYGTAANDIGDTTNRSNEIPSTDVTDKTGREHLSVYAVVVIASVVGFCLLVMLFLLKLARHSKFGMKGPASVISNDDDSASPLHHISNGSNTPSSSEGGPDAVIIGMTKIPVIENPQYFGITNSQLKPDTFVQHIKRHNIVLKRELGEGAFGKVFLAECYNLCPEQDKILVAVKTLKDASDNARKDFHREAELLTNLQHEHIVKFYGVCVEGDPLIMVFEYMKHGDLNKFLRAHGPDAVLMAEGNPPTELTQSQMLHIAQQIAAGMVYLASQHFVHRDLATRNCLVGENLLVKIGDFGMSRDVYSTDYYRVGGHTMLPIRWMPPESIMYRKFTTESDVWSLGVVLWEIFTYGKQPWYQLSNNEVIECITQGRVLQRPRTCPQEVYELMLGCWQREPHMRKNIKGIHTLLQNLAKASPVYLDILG
Another data set concerns the target DDR1 (Homo sapiens, UniProt Q08345). The experiment in a line: HotSpot kinase assay. As to conditions: read-out: % Enzyme Activity.
For data set [3] the following is noted: mouse, in vivo.
The nature of data set [4]: In vitro microsomal stability assay. The class given is in vitro ADME. As to conditions: 1 μM, mouse liver microsomes, percent remaining at 30 min. The procedure: All incubations were initiated with the addition of NADPH-generating system at 37 °C for 30 min. At 0 and the end of incubation, 100 μL of aliquots were taken from the incubation mixture and placed into centrifuge tubes containing 100 μL of ice-cold acetonitrile to terminate the metabolic reaction. The samples were vortexed and centrifuged, and then, the supernatant injected onto LC/MS. Percent of remaining of each compound was calculated by comparing peak areas at 30 min to that at the initiation of incubation.
(Liver microsomes are a subcellular fraction often used to study metabolism.)

Data set [5] concerns immune cells in tumor and spleen of MC38 tumor-bearing mice. The experiment in a line: Immunophenotyping by flow cytometry. As to conditions: 50 mg/kg QD, FOTO, 2 weeks. The class given is in vivo. Here is the method:
Tumor and spleen tissues from the control and treated animals were harvested 2 h after the last dose (day 11). […] tissues were carefully removed from the tumors followed by digestion with 0.1% collagenase III in DMEM medium for 30 min at 37 °C with agitation every 10 min. The digestion was terminated by adding 10% FBS containing PBS. The single-cell suspension was filtered through a 40 μm filter after red blood cell lysis. Aliquots of the cell suspension were preincubated with the mouse Fc receptor blocker for 10 min before staining with appropriate antimouse antibody conjugate for Cd45, Cd3, Cd4, Cd8, Cd11b, Cd86, F4/80, AXL, and MER (all antibody conjugates from BioLegend) at 4 °C for 30 min followed by two washes in 1% BSA containing buffer and analyzed by flow cytometry to quantify the accumulation of infiltrating immune cells into the tumor. For analysis of Cd206, the cells were fixed using the Cyto X/Cytoperm kit (BD Biosciences) after surface marker staining and then stained with antimouse Cd206 antibody.
In general terms: Flow cytometry measures light scatter and fluorescence of single cells or particles in a stream.

Data set [6] has as its system MER phosphorylation in G361 cells. Put plainly: Western blotting of MER phosphorylation. The settings on record: 48 h treatment. A general note: In western blotting, separated proteins are transferred to a membrane and probed.
In another data set the target is DDR2 (Homo sapiens, UniProt Q16832). The experiment in a line: HotSpot kinase assay. As to conditions: read-out: % Enzyme Activity.
Sequence of DDR2 (Q16832 22-855): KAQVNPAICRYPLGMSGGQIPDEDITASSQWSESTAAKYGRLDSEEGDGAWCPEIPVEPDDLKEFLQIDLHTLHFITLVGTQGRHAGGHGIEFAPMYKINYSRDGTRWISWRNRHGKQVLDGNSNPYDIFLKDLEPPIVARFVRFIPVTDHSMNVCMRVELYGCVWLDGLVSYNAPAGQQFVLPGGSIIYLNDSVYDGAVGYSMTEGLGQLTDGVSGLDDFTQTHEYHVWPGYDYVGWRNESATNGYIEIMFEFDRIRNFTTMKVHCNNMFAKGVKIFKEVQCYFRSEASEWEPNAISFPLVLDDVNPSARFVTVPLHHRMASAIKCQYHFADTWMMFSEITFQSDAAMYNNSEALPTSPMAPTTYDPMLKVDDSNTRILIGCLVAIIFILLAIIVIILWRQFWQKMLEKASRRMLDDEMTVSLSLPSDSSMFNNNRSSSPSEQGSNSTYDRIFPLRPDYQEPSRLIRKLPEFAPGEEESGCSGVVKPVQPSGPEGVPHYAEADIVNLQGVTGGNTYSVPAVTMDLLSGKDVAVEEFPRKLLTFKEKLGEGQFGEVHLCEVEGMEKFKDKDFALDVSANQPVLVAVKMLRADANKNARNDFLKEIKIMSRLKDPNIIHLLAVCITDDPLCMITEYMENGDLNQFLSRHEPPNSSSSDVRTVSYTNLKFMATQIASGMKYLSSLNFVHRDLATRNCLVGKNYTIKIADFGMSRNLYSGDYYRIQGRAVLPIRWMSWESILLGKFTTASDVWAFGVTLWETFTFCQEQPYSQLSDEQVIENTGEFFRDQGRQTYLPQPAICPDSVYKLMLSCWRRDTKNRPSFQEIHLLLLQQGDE
The target in a further data set is TRKA (Homo sapiens, UniProt P04629). Put plainly: HotSpot kinase assay. The settings on record: read-out: % Enzyme Activity.
Data set [7] in a line: In vivo pharmacokinetics study. The settings on record: mice. The procedure:
The animal studies were performed according to NHRI institutional animal care and committee-approved procedures. Male ICR mice (25–35 g) were obtained from BioLASCO (Taiwan Co., Ltd., Ilan, Taiwan). […] All samples were analyzed for the parent drug by LC-MS/MS. Plasma concentration data were analyzed with a noncompartmental method.

For another data set, the system named is Ba/F3-MER cells. The experiment in a line: Cell viability assay (MTS). In kind it is cell-based. As to conditions: 72 h.
For a further data set, the target named is ROS1 (Homo sapiens, UniProt P08922). The experiment in a line: HotSpot kinase assay. As to conditions: read-out: % Enzyme Activity.
The test system of data set [8] is AXL phosphorylation in H1299 cells. The experiment in a line: Western blotting of AXL phosphorylation. As to conditions: 1 h treatment.
A further data set concerns MC38 murine colon tumor. The experiment in a line: MC38 syngeneic tumor model. The class given is in vivo, mice. The settings on record: MC38 tumor-bearing mice, 25-50 mg/kg orally, 3 weeks.
Another data set concerns the target T1, MER (Homo sapiens, UniProt Q12866).
T1 construct: A purified kinase (MER or AXL) was incubated with a compound or DMSO
T1 sequence (Q12866 21-999): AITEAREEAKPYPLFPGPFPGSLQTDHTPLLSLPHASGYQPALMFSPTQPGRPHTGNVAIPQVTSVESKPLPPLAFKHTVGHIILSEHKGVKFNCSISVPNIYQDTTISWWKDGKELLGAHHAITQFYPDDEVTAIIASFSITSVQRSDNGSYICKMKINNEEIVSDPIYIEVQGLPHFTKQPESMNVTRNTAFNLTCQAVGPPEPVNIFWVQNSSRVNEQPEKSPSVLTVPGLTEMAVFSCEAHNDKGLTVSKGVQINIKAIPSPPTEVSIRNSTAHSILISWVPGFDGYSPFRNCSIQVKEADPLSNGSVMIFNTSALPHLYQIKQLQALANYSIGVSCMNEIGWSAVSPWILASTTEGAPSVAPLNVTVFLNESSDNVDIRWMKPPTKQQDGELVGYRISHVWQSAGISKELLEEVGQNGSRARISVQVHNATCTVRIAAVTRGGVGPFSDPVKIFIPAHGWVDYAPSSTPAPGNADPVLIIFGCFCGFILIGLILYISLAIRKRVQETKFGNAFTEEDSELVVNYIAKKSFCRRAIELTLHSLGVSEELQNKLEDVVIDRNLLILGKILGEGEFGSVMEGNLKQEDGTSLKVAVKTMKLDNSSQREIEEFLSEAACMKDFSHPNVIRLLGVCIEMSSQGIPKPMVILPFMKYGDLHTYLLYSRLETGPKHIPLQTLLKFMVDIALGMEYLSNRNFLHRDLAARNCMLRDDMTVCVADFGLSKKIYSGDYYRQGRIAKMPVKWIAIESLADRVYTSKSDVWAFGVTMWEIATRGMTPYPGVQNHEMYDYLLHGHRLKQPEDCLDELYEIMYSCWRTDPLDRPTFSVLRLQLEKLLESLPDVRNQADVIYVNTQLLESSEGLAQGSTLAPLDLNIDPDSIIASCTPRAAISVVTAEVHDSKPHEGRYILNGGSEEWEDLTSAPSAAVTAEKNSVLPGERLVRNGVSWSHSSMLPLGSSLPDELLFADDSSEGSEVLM
The settings on record: cited from earlier work.

For data set [9], the system named is FLT3. The arrangement: method as in PMID 25068800, PMID 27649555. The settings on record: cited from earlier work.
Where [10] appears, read: male, ICR, mouse, plasma, iv 2 mg/kg, po 10 mg/kg.

Sequence of DDR1 (Q08345 19-913): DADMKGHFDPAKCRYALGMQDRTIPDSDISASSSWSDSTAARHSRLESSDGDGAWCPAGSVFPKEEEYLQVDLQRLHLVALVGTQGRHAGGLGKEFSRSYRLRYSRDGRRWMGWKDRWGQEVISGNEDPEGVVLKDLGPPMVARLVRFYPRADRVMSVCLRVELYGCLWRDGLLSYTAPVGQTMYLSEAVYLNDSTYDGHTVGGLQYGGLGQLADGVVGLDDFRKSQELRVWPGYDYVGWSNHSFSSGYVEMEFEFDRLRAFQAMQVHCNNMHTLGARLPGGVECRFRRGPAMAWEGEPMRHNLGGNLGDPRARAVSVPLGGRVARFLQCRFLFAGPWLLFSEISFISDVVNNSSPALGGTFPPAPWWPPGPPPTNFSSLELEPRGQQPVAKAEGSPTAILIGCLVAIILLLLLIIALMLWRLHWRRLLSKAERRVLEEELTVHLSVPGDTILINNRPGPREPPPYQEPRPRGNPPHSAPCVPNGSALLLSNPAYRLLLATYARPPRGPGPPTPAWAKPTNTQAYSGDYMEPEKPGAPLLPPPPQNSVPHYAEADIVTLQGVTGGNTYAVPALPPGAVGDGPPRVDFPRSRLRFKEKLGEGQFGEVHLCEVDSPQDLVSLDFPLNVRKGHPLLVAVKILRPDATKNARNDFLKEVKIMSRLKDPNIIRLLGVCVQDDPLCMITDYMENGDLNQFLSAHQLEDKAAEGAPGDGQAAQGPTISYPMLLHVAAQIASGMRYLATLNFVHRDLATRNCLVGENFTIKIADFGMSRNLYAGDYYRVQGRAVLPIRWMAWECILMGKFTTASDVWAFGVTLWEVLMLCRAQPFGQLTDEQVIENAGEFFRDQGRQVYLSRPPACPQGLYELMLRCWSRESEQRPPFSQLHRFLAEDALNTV
Sequence of FLT3 (P36888 27-993): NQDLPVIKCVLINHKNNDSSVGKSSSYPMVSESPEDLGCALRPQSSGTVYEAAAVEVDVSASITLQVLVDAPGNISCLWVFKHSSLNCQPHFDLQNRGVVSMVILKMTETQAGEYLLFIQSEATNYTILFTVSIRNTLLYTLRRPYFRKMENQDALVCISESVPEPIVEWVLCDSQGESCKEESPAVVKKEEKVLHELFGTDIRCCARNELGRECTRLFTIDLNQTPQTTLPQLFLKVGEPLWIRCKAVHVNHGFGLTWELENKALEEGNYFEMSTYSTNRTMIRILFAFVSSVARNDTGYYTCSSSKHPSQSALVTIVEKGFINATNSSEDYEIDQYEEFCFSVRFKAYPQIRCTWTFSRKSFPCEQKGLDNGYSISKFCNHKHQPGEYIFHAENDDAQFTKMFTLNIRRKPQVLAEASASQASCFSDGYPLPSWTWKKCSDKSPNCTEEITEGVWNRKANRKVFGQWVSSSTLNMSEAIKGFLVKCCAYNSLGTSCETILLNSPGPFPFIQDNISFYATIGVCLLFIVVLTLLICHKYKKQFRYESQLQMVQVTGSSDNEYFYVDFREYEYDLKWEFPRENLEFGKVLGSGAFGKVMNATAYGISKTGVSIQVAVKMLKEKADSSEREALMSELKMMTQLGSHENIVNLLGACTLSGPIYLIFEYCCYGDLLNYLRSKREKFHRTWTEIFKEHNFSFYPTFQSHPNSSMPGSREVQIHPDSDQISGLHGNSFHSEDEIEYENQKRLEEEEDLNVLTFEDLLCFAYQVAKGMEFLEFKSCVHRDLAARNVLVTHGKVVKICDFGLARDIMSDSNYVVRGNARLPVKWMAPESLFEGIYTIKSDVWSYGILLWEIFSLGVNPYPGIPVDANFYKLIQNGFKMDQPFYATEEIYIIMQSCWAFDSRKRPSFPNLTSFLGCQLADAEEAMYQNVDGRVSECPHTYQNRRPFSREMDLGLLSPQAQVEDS

The term bioavailability denotes the share of a dose that reaches the circulation, judged against a reference dose that is usually intravenous. One may read the Tmax as the time at which the peak concentration occurs. Usually IC50 stands for the point on the concentration scale where inhibition reaches its midpoint. For `CN(C)Cc1cccc(-c2c(-c3cnn(C)c3)oc3ncnc(Oc4ccc(NC(=O)c5cccn(-c6ccc(F)cc6)c5=O)cc4)c23)c1` [Compound 33, N-{4-[(5-{3-[(Dimethylamino)methyl]phenyl}-6-(1-methyl-1H-pyrazol-4-yl)furo[2,3-d]pyrimidin-4-yl)oxy]phenyl}-1-(4-fluorophenyl)-2-oxo-1,2-dihydropyridine-3-carboxamide], on FLT3 [1], the remaining activity at 1 µM was -0.03%. Besides, in data set [2], the CBC result is “No significant”; the body weight entry is “No effect on body”; the “kidney serum biomarker CRE” value was “Mild effect on CRE; also recorded: mild decline in kidney serum biomarker CRE at 30 and 100 mpk”; the organ weight result is recorded as “No significant”. For the same compound, the remaining activity at 1 µM at KIT is 1.05%. For the same compound, the remaining activity at 1 µM on IRR turned out to be 1.79%. Moreover, on TRKC, the remaining activity at 1 µM was 2.26%. On TRKB, the remaining activity at 1 µM is 6.07%. Also, the remaining activity at 1 µM on DDR1 turned out to be 9.39%. Moreover, the “toxicity, 14-day repeated dose” value in [3] was “no significant toxicity at any dose level”. Besides, in data set [4], the “Microsomal stability @ 30 min” value was found to be 79%. Besides, in [5], the “increase in intratumoral M1-like macrophages” value amounted to 2 fold, the “increase in percentage of Cd3^+ pan-T cells in spleen” value is 2 fold, the “increase in percentage of Cd4^+ helper T cells in spleen” value was determined as 2 fold and the “increase in percentage of Cd8^+ cytotoxic T cells in spleen” value is 6 fold. For the same compound, the “MER phosphorylation induced by MAB8912” value in data set [6] is on record as “effectively blocked MER phosphorylation”. Further, at DDR2, the remaining activity at 1 µM worked out at 4.45%. The remaining activity at 1 µM at TRKA amounted to 3.35%. In data set [7] (setting [10]), this compound displayed a bioavailability greater than 20% and a bioavailability at 24 h of 54.6%. Also, in [7] (male, ICR, mouse, plasma, iv 2 mg/kg, read-out: iv CL), the clearance is 12.6 mL/min/kg. The half-life in [7] (male, ICR, mouse, plasma, iv 2 mg/kg, read-out: iv T1/2 (converted)) was 4.5 h. Moreover, the Vd in data set [7] (male, ICR, mouse, plasma, iv 2 mg/kg, read-out: iv Vss) stood at 5.2 L/kg. Further, the time to peak (Tmax) at 24 h in [7] (male, ICR, mouse, plasma, po 10 mg/kg) worked out at 5.3 h. The half-life at 24 h in data set [7] (male, ICR, mouse, plasma, po 10 mg/kg, read-out: po T1/2 (converted)) was 5.2 h. The “iv DNAUC(0–inf)” value in data set [7] (iv 2 mg/kg, dose-normalized) is 1,573.0 ng × hr/mL. Also, in data set [7] (po 10 mg/kg, dose-normalized), the “po DNAUC(0–inf)” value turned out to be 858.8 ng·h/mL and the “po DNCmax” value is 95.0 ng/mL. The IC50 in the data set with Ba/F3-MER cells was 5 nM and 4.8 nM. For the same compound, on ROS1, the remaining activity at 1 µM was determined as 2.88%. In [8], the “Gas6-mediated AXL phosphorylation” value is listed as “effectively blocked”. In addition, the “body weight during treatment” value with MC38 murine colon tumor is listed as “well-tolerated without significant body weight loss”.
Regarding `CCC[C@@H](C)Nc1ncc2c(C3CCN(C(=O)c4cc(C)nc(C)c4)CC3)cn([C@H]3CC[C@H](O)CC3)c2n1` [Compound 2, UNC5293], the half-inhibitory concentration (IC50) on MER is 0.9 nM.
As for `CCCCNc1ncc2c(-c3ccc(CN4CCN(C)CC4)cc3)cn([C@H]3CC[C@H](O)CC3)c2n1` [Compound 1, UNC2025, reference compound], the half-inhibitory concentration (IC50) in the data set with FLT3 [9] was […].

The record behind these values is article PMC11247487, “Discovery of Dual MER/AXL Kinase Inhibitors as Bifunctional Small Molecules for Inhibiting Tumor Growth and Enhancing Tumor Immune Microenvironment” (Journal of Medicinal Chemistry, 2024).
